Patent US9138431B2, “Methods of treatment of histamine H-4 receptor-related pruritus” (BRIDGE PHARMA, INC., priority 2013, dated 2015)
Read-outs that look alike come from different tables or passages of the source.

How the values were obtained:
[1] = Dermal drug accumulation after oral administration (plasma and skin PK); format: in vivo, beagle dogs; conditions: Day 28, oral 8.0 mg/kg/day hydrogen fumarate salt, dogs
Protocol: Five male beagle dogs, weighing 11.2-13.9 kg (2-4 years old) were used in the study. All animals were administered gelatin capsules containing oral doses of the test article 8.0 mg/kg/day as a hydrogen fumarate salt, equal to 5.6 mg/kg/day of the free base. The animals were dosed once daily for four consecutive weeks followed by daily observations for an additional two-week washout period.
Multiple plasma samples and skin biopsies were taken from each dog on Day 1 and Day 28 of drug administration. The plasma and skin samplings were performed at pre-dose, and at 2, 6, 12 and 24 hours post-dose. Plasma and skin samples were also taken intermittently at predetermined intervals during the 28-days dosing period and up to the last day of the study, which was Day 42. Blood samples were taken from v. Cephalica antebrachii. Skin biopsies were taken from the area between the mid ventral to lateral abdominal areas, using a 6 mm (diameter) skin biopsy device (Acu-Punch®, Acuderm® Inc., Fort Lauderdale, Fla. 33309). Multiple plasma and biopsy samples were obtained from each of 4 or 5 dogs. Subcutaneous fat deposits were carefully trimmed from the skin samples and the skin samples were weighed. All plasma and skin samples were kept
The plasma samples and skin biopsy samples were analyzed using LC/MS/MS methodology. All pharmacokinetic analyses were performed using Pharsight WinNonlin® Professional v5.2.1 software.

[2] = biological target: human histamine H-1 Receptor (Homo sapiens (Human), UniProt P35367); assay: Binding to histamine H-1 receptors; conditions: read-out: Human H-1 receptors IC50, heading: Human H-1 receptors IC50
Protocol: (§1) Affinities of the test compounds for peripheral human histamine H-1-receptors were assessed using receptor-binding assays. The specific binding of the radioactive ligand to the receptor was defined as the difference between total binding and nonspecific binding, determined in the presence of excess unlabeled ligand. Ki-values were determined according to the Cheng-Prusoff equation.

[3] = biological target: human histamine H-4 Receptor (Homo sapiens (Human), UniProt Q9H3N8); assay: Binding to histamine H-4 receptors ([3H]-histamine ligand); conditions: Cheng-Prusoff, read-out: Human H-4 receptor affinity (Ki)
Protocol: as §1, with “H-4-receptors” for “H-1-receptors”, “[^3H]-histamine was used as the ligand in this study and the affinity values” for “Ki-values”

[4] = tested on: pruritus induced by interleukin-31 (IL-31); conditions: recent study; cited from earlier work
[5] = tested on: histamine-induced pruritus; assay: Antipruritic activity, histamine-induced pruritus in mice; format: in vivo, CD-1 mice; conditions: for Inhibition of histamine-induced pruritus (bouts of scratches): oral dosing 60 min before intradermal histamine 300 nmol, references 20 mg/kg, norketotifen escalating doses
Protocol: Antipruritic effects were tested in vivo in CD-1 mice, females, 10-12 weeks, according to methods known in the art. The hair was clipped over the rostral part of the back at the interscapular level of the mice one day before the dosing. Before the testing, the mice were placed in individual clear plastic cages for at least one hour for acclimation. After fasting for 1.5 hours, the animals were dosed orally with the test article, dissolved in a vehicle consisting of 1% methylcellulose/water, 10 mL/kg body weight. Sixty minutes after the oral dosing, an intradermal injection of histamine (300 nmol in 20 μl phosphate buffered saline (PBS), pH 7.4) was administered. Immediately after the histamine injection, the bouts of scratches were counted for 40 min. Scratching induced by the histamine vehicle PBS served as control.
Norketotifen was tested in escalating doses and in a supramaximal dose of 100 mg/kg.

[6] = tested on: histamine-induced pruritus; conditions: intradermal histamine, humans and mice; general statement; cited from earlier work
[7] = tested on: human granulocytes (leukocytes; buffy coat); assay: Inhibition of histamine release from human granulocytes (A23187-induced); format: cell-based; conditions: for IC50: Homo sapiens, Leukocyte, 20 min, histamine release induced by A23187 5 μM, 20 min/37° C., read-out: Inhibition of mediator release IC50
Protocol: Histamine is excessively released from granulocytes in patients with pruritic diseases. The inhibition of histamine release from human granulocytes (leukocytes; buffy coat) by test articles was studied. Leukocytes were obtained from blood from healthy human volunteers and release of histamine was induced by incubation (20 min/37° C.) of the buffy coats with the calcium ionophore A23187 (5 μM) in the presence or absence of a test article. Histamine was analyzed by enzyme-immune assays, using commercially available kits and a microplate reader (MRX, Dynatech). The test articles were evaluated, in duplicate, at five concentrations.

[8] = Sedation in human subjects; format: in vivo; conditions: doses of 5 mg and 10 mg
[9] = Repeat-dose pharmacological and toxicological studies in dogs (sedation, tolerability); format: in vivo; conditions: daily doses up to 20 mg/kg/day
Description: Dogs vomit spontaneously for a variety of benign reasons—to expel unwanted content from their stomach, as a result of gastric irritation or in response to colonic irritation. In recent toxicological studies in dogs of various drugs, including isomeric norketotifen, vomiting occurred in both control groups and drug groups and may have been treatment-related, rather than drug-related. The unexpectedly low systemic toxicity of norketotifen and the isomers thereof is believed to be due to low systemic (plasma) concentrations, caused by the fact that norketotifen and the isomers thereof are not circulating in plasma but are accumulating in the skin, which is the largest organ in the body.

Chain of human histamine H-1 Receptor (P35367 whole entry): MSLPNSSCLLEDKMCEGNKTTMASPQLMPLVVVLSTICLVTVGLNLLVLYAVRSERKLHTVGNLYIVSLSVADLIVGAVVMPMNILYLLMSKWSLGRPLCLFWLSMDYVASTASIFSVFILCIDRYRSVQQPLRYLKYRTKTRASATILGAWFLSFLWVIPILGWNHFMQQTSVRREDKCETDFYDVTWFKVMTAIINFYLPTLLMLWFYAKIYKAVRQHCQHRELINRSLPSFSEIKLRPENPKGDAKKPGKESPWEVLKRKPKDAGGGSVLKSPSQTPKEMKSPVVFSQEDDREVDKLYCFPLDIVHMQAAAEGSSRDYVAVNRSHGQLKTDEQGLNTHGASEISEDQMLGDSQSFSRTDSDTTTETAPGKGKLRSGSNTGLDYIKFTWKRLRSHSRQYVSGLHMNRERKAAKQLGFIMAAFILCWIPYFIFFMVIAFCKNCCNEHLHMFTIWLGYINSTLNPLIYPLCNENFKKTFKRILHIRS
Chain of human histamine H-4 Receptor (Q9H3N8 whole entry): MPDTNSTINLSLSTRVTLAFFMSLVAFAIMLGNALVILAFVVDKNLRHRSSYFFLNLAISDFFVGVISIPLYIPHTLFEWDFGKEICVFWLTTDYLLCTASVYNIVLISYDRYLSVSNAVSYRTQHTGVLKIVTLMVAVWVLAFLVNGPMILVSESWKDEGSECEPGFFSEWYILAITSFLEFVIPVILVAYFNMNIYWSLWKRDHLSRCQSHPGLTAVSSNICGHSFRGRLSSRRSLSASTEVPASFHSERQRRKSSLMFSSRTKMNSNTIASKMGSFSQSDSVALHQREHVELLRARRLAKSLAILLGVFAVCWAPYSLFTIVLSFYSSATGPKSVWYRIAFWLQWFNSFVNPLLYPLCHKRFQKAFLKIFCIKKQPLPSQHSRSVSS

| Compound | MRT Plasma [1] | t1/2 Plasma [1] | MRT Skin [1] | t1/2 Skin [1] | IC50 [2] | Ki [3] | Inhibition of histamine-induced pruritus (bouts of scratches) [5] | IC50 [7] | other results |
| --- | --- | --- | --- | --- | --- | --- | --- | --- | --- |
| O=C1Cc2ccccc2C(=C2CCNCC2)c2ccsc21 [S-NORKETOTIFEN, S-norketotifen] | 11.3 h | 10.9 h | 159.0 h | 162.7 h | 23 nM | 1100 nM | – | – | – |
| CN1CCN(C(=O)c2cc3cc(Cl)ccc3[nH]2)CC1 [JNJ7777120, reference compound] | – | – | – | – | – | – | potently inhibited | – | Inhibition of IL-31-induced pruritus [4]: failed to inhibit |
| CC(C)(C(=O)O)c1ccc(C(O)CCCN2CCC(C(O)(c3ccccc3)c3ccccc3)CC2)cc1 (stereo not drawn) [fexofenadine] | – | – | – | – | – | – | – | – | Inhibition of pruritus following histamine injections by H-1 inhibitors [6]: not inhibited |
| CN1CCC(=C2c3ccccc3CC(=O)c3sccc32)CC1 [Ketotifen, ketotifen, reference compound] | – | – | – | – | – | – | – | 91000 nM | – |
| O=C1Cc2ccccc2C(=C2CCNCC2)c2ccsc21 [Norketotifen, norketotifen] | – | – | – | – | – | – | dose-dependently inhibiting | 9200 nM | Sedation [8]: do not produce sedation; Inhibition of histamine-induced pruritus at supramaximal dose ([5]; norketotifen 100 mg/kg oral): complete inhibition; Inhibition of histamine-induced pruritus (bouts of scratches) ([5]; listed as norketotifen): potently inhibited; IC50 ([2]; listed as RS-NORKETOTIFEN): 11 nM; Potency relative to ketotifen as inhibitor of histamine release ([7]; human inflammatory cells): approximately 10 times; Sedation or other adverse events, chronic dosing [9]: without causing sedation or other adverse events |
| O=C(O)/C=C/C(=O)O.O=C1Cc2ccccc2C(=C2CCNCC2)c2ccsc21 [R-NORKETOTIFEN, R-norketotifen] | 14.1 h | 7.7 h | 159.1 h | 157.0 h | 17 nM | 2300 nM | – | – | – |
